Experimental data: PMC6150205, “Semisynthesis, an Anti-Inflammatory Effect of Derivatives of 1β-Hydroxy Alantolactone from Inula britannica” (Molecules : A Journal of Synthetic Chemistry and Natural …, 2017)

Assays:
Assay type in all cases: cell-based
[1] = test system: LPS-induced NO production in RAW 264.7 macrophages; test: Inhibition of LPS-induced NO production in RAW 264.7 macrophages (Griess reagent); conditions: for IC50: LPS-induced RAW 264.7 macrophages, 4 h pretreatment, then 48 h with 2 μg/mL LPS
Experimental: (§1) Then, 100-μL aliquots of the exponentially growing RAW 264.7 cells were seeded in 96-well culture plates at 1 × 10^4 cells/well at 37 °C for overnight in DMEM medium with 0.1% FBS. The culture medium was replaced by fresh free-FBS medium and cells were pretreated with different concentrations (0, 1, 3, 10, 30, 100, 300, 1000 μM) of samples for 4 h. Thereafter, the medium with samples was removed and then incubated for 48 h with or without 2 μg/mL LPS 10% FBS DMEM. The nitrite concentration (NO production) in the culture supernatant was measured using Nitric Oxide assay kit mainly containing Griess reagent. The absorbance was measured at 540 nm using a microplate reader (M5). The amount of NO was calculated from a standard curve created using sodium nitrite with known concentrations. The cell viability was evaluated by SRB colorimetric assay.

[2] = Cytotoxicity / cell viability by SRB colorimetric assay; conditions: mouse, RAW 264.7 cells, inhibition of cell viability of samples-treated RAW264.7 cells
Experimental: as §1

NF-κB = NF-κB luciferase reporter assay in TNF-α-induced RAW264.7 cells; conditions: 8 h treatment, TNF-α 50 ng/mL; for inhibition of the NF-κB pathway (result in words): 1-50 µM; for inhibition at 20 µM: Mus musculus, read-out: NF-κB-luciferase inhibitory percentage
Experimental: RAW 264.7 cells (10,000 cells/well) were placed in a 96-well plate and the cells were then transfected with pNF-κB-Luc expression plasmid using a mixture of plasmid and lipofectamin 2000 PLUS in the Opti-MEM® I Reduced Serum Medium according to manufacturer’s instructions (Life Technologies, Carlsbad, CA, USA). After 12 h, the cells were co-incubated with the active samples (1, 5, 10, 20, 50 µM) and TNF-α. Parthenolide (P) was used as positive control. NF-κB was induced by adding TNF-α (50 ng/mL, delivered in PBS) to the treated wells and the induced control wells. After an additional 8 h, Bright-Glo luciferase reagent (Beyotime) was added to each well (100 μL) and the plate was allowed to stand for two minutes. Luminescence measurements with a relative light unit (RLU) were then obtained using a Fluoroskan Ascent multiple microplate reader (Molecular Device, Sunnyvale, CA, USA). Each experiment was performed in biological triplicate (at minimum) with three technical replicates per experiment.
Figure 3 Compound 1 inhibited TNF-α-induced NF-κB activation by NF-κB-luciferase inhibition assay in RAW264.7 cells. 1 and parthenolide (P, positive control) were dosed to RAW264.7 cells containing a stably transfected NF-κB luciferase reporter and stimulated with TNF-α (50 ng/mL) for 8 h (except for a non-induced control, Non-Ind). […] Mean ± standard deviation values are shown with more than three replicates.

[3] = test system: NF-κB p65 and p50 subunit; test: Western blotting of p65 and p50 phosphorylation in TNF-α-induced RAW264.7 cells; conditions: 50, 10 and 1 µM, 8 h, TNF-α 50 ng/mL
Experimental: RAW 264.7 cells were seeded in a 24-well plate at 5 × 10^4 cells/well. After cells adherence for overnight, the test compound 1 (50, 10 and 1 µM) or parthenolide (10 µM) and TNF-α (50 ng/mL) were added to the wells and incubated for 8 h. Then, cell pellets were collected and lysed with RIPA lysis buffer containing 0.5 mM phenylmethylsulfonyl fluoride (PMSF) and a protease inhibitor cocktail. The protein concentration of cell samples was analyzed by using the BCA method. Equal amount proteins of each sample were electrophoresed on 12% separating gel and 4% stacking gel and electrotransferred onto an NC membrane. After incubation with appropriate primary and secondary antibodies of p65 and p50, protein blots were detected by using ECL solution and ChemiDoc XRS+ imaging system (Bio-Rad, Hercules, CA, USA). β-actin was used as loading control.  Figure 4 Compound 1 blocks TNF-α-induced NF-κB activation through p65 and p50 phosphorylation in RAW264.7 cells. After treatment with 1 and parthenolide (P) at the indicated concentrations for 8 h, total cell lysates were tested by western blot experiments.

Compound: N=C(N)NN [Aminoguanidine, reference compound]
- IC50 [1]: 10.9 ± 1.5 µM

Compound: C=C1C(=O)O[C@@H]2C[C@]3(C)C(=C[C@H]12)[C@@H](C)CC[C@H]3O [Compound 1, 1β-Hydroxy alantolactone]
- IC50 at 4 h [2]: > 50 µM
- inhibition of the NF-κB pathway (result in words) (NF-κB): dose-dependent inhibition
- inhibition at 20 µM (NF-κB): 75%
- IC50 ([1]; Mus musculus, RAW264.7): 5.61 ± 0.34 µM
- potency against NO production relative to 2–4 ([1]; ratio of IC50 values, 1 versus 2–4): 6.5–8.4 fold
- TNF-α-induced phosphorylation of NF-κB p65 and p50 subunit (result in words) [3]: dose-dependently suppressed

Compound: C=C1C(=O)O[C@@H]2C[C@@]3(C)C(=O)CC[C@H](C)C3=C[C@H]12 [Compound 2]
- IC50 at 4 h [2]: 34.5 ± 5.8 µM
- inhibition at 20 µM (NF-κB): 55%
- IC50 ([1]; Mus musculus, RAW264.7): 36.1 ± 3.8 µM

Compound: C=C1C(=O)O[C@@H]2C[C@]3(C)C(=C[C@H]12)[C@@H](C)CC[C@H]3OC(C)=O [Compound 3]
- IC50 at 4 h [2]: > 50 µM
- IC50 ([1]; Mus musculus, RAW264.7): 46.5 ± 5.6 µM

Compound: C=C1C(=O)O[C@@H]2C[C@]3(C)C(=C[C@H]12)[C@@H](C)CC[C@H]3OC(=O)CCC(=O)O [Compound 4]
- IC50 at 4 h [2]: > 50 µM
- IC50 ([1]; Mus musculus, RAW264.7): 39.6 ± 5.7 µM

Compound: C[C@@H]1C(=O)O[C@@H]2C[C@]3(C)C(=C[C@H]12)[C@@H](C)CC[C@H]3O [Compound 5]
- IC50 ([1]; Mus musculus, RAW264.7): > 1000 µM

Compound: Cc1ccc(C2=NO[C@]3(C2)C(=O)O[C@@H]2C[C@@]4(C)C(=O)CC[C@H](C)C4=C[C@@H]23)cc1 [Compound 6]
- IC50 ([1]; Mus musculus, RAW264.7): > 1000 µM

Compound: C=C1C(=O)O[C@H]2[C@H]1CC/C(C)=C/CC[C@@]1(C)O[C@@H]21 [parthenolide, Parthenolide, reference compound]
- inhibition of the NF-κB pathway (result in words) (NF-κB): comparably potent
